Experimental findings from patent US20220289753A1, “SHP2 INHIBITORS” (IRBM S.P.A., priority 2019, published 2022) are described below.

SMILES strings stand for the structures.

This assay concerns the target T1, SHP-2 enzyme (Met1-Leu525) (Homo sapiens, UniProt Q06124).
T1 construct: synthetized by Origene, Met1-Leu525, cat #TP750155; purchased Origene TP750155
T1 sequence (Q06124 1-525): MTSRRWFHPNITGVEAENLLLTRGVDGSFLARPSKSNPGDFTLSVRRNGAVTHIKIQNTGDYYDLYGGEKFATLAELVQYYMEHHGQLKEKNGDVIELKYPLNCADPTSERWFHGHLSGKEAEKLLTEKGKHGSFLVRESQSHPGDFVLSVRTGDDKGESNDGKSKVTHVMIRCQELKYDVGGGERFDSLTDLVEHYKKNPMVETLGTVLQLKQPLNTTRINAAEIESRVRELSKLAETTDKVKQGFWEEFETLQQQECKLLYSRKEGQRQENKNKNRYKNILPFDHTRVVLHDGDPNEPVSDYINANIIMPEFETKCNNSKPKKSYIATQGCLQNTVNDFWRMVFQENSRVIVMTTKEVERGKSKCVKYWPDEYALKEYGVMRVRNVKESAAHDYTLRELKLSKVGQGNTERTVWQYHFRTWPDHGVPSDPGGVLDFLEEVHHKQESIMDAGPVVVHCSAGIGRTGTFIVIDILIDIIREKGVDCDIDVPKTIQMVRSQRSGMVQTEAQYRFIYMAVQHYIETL
The experiment in a line: SHP2 inhibition enzymatic assay (DiFMUP substrate, IRS1 peptide activation). Type of assay: biochemical. As to conditions: SHP2 wt; activated by 500 nM IRS1 peptide; 75 μM DiFMUP substrate. As for the experimental part:
SHP2 Inhibition Enzymatic Assay
Assay volume of 20 μL/well was assembled in 384 well black polystyrene low-binding microplates (Greiner), using the following buffer: 60 mM HEPES pH 7.2, 75 mM NaCl, 75 mM KCl, 1 mM EDTA pH 8, 0.05% tween-20, 5 mM DTT. The SHP-2 enzyme (synthetized by Origene, Met1-Leu525, cat #TP750155) was used at a final concentration of 0.5 nM.
Briefly, DMSO serially diluted testing compounds were transferred to the bottom of the assay plate. SHP2 was then added together with the IRS1 peptide. 30 minutes post incubation, the DiFMUP substrate was added to the reaction and incubated 30 min at room temperature. […] The fluorescence was detected by a microplate reader (Envision, PerkinElmer) according to the DiFMUP excitation and emission wavelength. The lower the fluorescence the higher the SHP2 inhibition.
The percentage inhibition is fitted against the compound dilutions with a four-parameter logistic regression. The inflection point (i.e. the concentration at which half-maximal inhibition is achieved) is the IC50.
For the molecule `CC1(N)CCN(c2nc3nc(Sc4cccc5cnccc45)cnc3[nH]2)CC1` [Example 70, 1-(5-(isoquinolin-5-ylthio)-1H-imidazo[4,5-b]pyrazin-2-yl)-4-methylpiperidin-4-amine], the IC50 was less than 0.5 µM.
With `CC1(N)CCN(c2nc3nc(Sc4ccsc4Cl)cnc3[nH]2)CC1` [Example 73, 1-(5-((2-chlorothiophen-3-yl)thio)-1H-imidazo[4,5-b]pyrazin-2-yl)-4-methylpiperidin-4-amine] the figure was less than 0.5 µM.
With `FC(F)(F)c1ncccc1Sc1cnc2[nH]c(N3CCN4CCNCC4C3)nc2n1` (centres unmarked) [Example 56, 2-(5-((2-(trifluoromethyl)pyridin-3-yl)thio)-1H-imidazo[4,5-b]pyrazin-2-yl)octahydro-2H-pyrazino[1,2-a]pyrazine] the figure was 0.5 to 3 µM.
`Cn1c(N2CCC(C)(N)CC2)nc2ncc(Sc3cccnc3C(F)(F)F)nc21` [Example 4, 4-methyl-1-(1-methyl-6-((2-(trifluoromethyl)pyridin-3-yl)thio)-1H-imidazo[4,5-b]pyrazin-2-yl)piperidin-4-amine] returned an IC50 of 0.5 to 3 µM.
With `CC(C)(CNc1nc2nc(Sc3cccnc3C(F)(F)F)cnc2[nH]1)N1CCOCC1` [Example 87, N-(2-methyl-2-morpholinopropyl)-5-((2-(trifluoromethyl)pyridin-3-yl)thio)-1H-imidazo[4,5-b]pyrazin-2-amine] the figure was more than 3 µM; with `Cc1c(Cl)cccc1Sc1cnc2[nH]c(N3CCC(C)(N)CC3)nc2n1` [Example 114, 1-(5-((3-chloro-2-methylphenyl)thio)-1H-imidazo[4,5-b]pyrazin-2-yl)-4-methylpiperidin-4-amine], less than 0.5 µM.
To `CCn1c(N2CCC(C)(N)CC2)nc2nc(Sc3cccnc3C(F)(F)F)cnc21` [Example 63, 1-(1-ethyl-5-((2-(trifluoromethyl)pyridin-3-yl)thio)-1H-imidazo[4,5-b]pyrazin-2-yl)-4-methylpiperidin-4-amine] belongs 0.5 to 3 µM.
To `CC1(N)CCN(c2nc3nc(Nc4cccc(Cl)c4Cl)cnc3[nH]2)CC1` [Example 121, 2-(4-amino-4-methylpiperidin-1-yl)-N-(2,3-dichlorophenyl)-1H-imidazo[4,5-b]pyrazin-5-amine] belongs more than 3 µM; to `CC1(N)CCN(c2nc3nc(Sc4ncnc5ccccc45)cnc3[nH]2)CC1` [Example 101, 4-methyl-1-(5-(quinazolin-4-ylthio)-1H-imidazo[4,5-b]pyrazin-2-yl)piperidin-4-amine], more than 3 µM; to `CC1(N)CCN(c2nc3nc(Sc4cccnc4C(F)(F)F)cnc3s2)CC1` [Example 119, 4-methyl-1-(5-((2-(trifluoromethyl)pyridin-3-yl)thio)thiazolo[4,5-b]pyrazin-2-yl)piperidin-4-amine], 0.5 to 3 µM.
Turning to `FC(F)(F)c1ncccc1Sc1cnc2[nH]c(N3CC4(CCCNC4)C3)nc2n1` [Example 17, 2-(2,6-diazaspiro[3.5]nonan-2-yl)-5-((2-(trifluoromethyl)pyridin-3-yl)thio)-1H-imidazo[4,5-b]pyrazine], the IC50 was 0.5 to 3 µM.
In turn, `CC1(N)CCN(c2nc3nc(Sc4cccc(F)c4F)cnc3[nH]2)CC1` [Example 21, 1-(5-((2,3-difluorophenyl)thio)-1H-imidazo[4,5-b]pyrazin-2-yl)-4-methylpiperidin-4-amine] showed a concentration for half-maximal inhibition (IC50) of 0.5 to 3 µM.
To `CC1(N)CCN(c2nc3nc(Sc4cccc(O)n4)cnc3[nH]2)CC1` [Example 66, 6-((2-(4-amino-4-methylpiperidin-1-yl)-1H-imidazo[4,5-b]pyrazin-5-yl)thio)pyridin-2-ol] belongs more than 3 µM; to `CC1(N)CCN(c2nc3ncc(Sc4csc5cnccc45)nc3[nH]2)CC1` [Example 9, 4-methyl-1-(6-(thieno[2,3-c]pyridin-3-ylthio)-1H-imidazo[4,5-b]pyrazin-2-yl)piperidin-4-amine], 0.5 to 3 µM; to `COc1ccccc1Sc1cnc2[nH]c(N3CCC(C)(N)CC3)nc2n1` [Example 24, 1-(5-((2-methoxyphenyl)thio)-1H-imidazo[4,5-b]pyrazin-2-yl)-4-methylpiperidin-4-amine], less than 0.5 µM.
For `CC(C)c1ccccc1Sc1cnc2[nH]c(N3CCC(C)(N)CC3)nc2n1` [Example 115, 1-(5-((2-isopropylphenyl)thio)-1H-imidazo[4,5-b]pyrazin-2-yl)-4-methylpiperidin-4-amine], the half-inhibitory concentration (IC50) lay in the range of 0.5 to 3 µM.
With `CC1(N)CCN(c2nc3nc(Sc4cccc(S(F)(F)(F)(F)F)c4)cnc3[nH]2)CC1` [Example 93, 4-methyl-1-(5-((3-(pentafluoro-l6-sulfaneyl)phenyl)thio)-1H-imidazo[4,5-b]pyrazin-2-yl)piperidin-4-amine] the figure was 0.5 to 3 µM; with `Nc1nccc(Sc2cnc3[nH]c(N4CCC5(CC4)Cc4ccc(O)cc4[C@H]5N)nc3n2)c1Cl` [Example 208, (S)-1-amino-1′-(5-((2-amino-3-chloropyridin-4-yl)thio)-1H-imidazo[4,5-b]pyrazin-2-yl)-1,3-dihydrospiro[indene-2,4′-piperidin]-6-ol], less than 0.5 µM; with `CC1(N)CCN(c2nc3nc(Sc4ccc(OC(F)(F)F)cc4)cnc3[nH]2)CC1` [Example 27, 4-methyl-1-(5-((4-(trifluoromethoxy)phenyl)thio)-1H-imidazo[4,5-b]pyrazin-2-yl)piperidin-4-amine], more than 3 µM.
With `CC1(N)CCN(c2nc3nc(Sc4cccc5ncncc45)cnc3[nH]2)CC1` [Example 100, 4-methyl-1-(5-(quinazolin-5-ylthio)-1H-imidazo[4,5-b]pyrazin-2-yl)piperidin-4-amine] the figure was 0.5 to 3 µM; with `NCC1CCN(c2nc3nc(Sc4cccnc4C(F)(F)F)cnc3[nH]2)CC1` [Example 8, (1-(5-((2-(trifluoromethyl)pyridin-3-yl)thio)-1H-imidazo[4,5-b]pyrazin-2-yl)piperidin-4-yl)methanamine], 0.5 to 3 µM; with `FC(F)(F)c1ncccc1Sc1cnc2[nH]c(NCC3COCCN3)nc2n1` (centres unmarked) [Example 111, N-(morpholin-3-ylmethyl)-5-((2-(trifluoromethyl)pyridin-3-yl)thio)-1H-imidazo[4,5-b]pyrazin-2-amine], more than 3 µM.
With `CNC1CCN(c2nc3nc(Sc4cccnc4C(F)(F)F)cnc3[nH]2)CC1` [Example 16, N-methyl-1-(5-((2-(trifluoromethyl)pyridin-3-yl)thio)-1H-imidazo[4,5-b]pyrazin-2-yl)piperidin-4-amine] the figure was 0.5 to 3 µM; with `CC1(N)CCN(c2nc3ncc(Sc4ccc(-n5nc[nH]c5=O)cc4)nc3[nH]2)CC1` [Example 10, 2-(4-((2-(4-amino-4-methylpiperidin-1-yl)-1H-imidazo[4,5-b]pyrazin-6-yl)thio)phenyl)-2,4-dihydro-3H-1,2,4-triazol-3-one], 0.5 to 3 µM.
As to `CC1(N)CCN(c2nc3nc(Sc4cccc(C(=O)O)c4)cnc3[nH]2)CC1` [Example 94, 3-((2-(4-amino-4-methylpiperidin-1-yl)-1H-imidazo[4,5-b]pyrazin-5-yl)thio)benzoic acid], the half-maximal inhibitory concentration (IC50) is less than 0.5 µM.
`CN1CCOc2ccc(Sc3cnc4[nH]c(N5CCC(C)(N)CC5)nc4n3)cc21` [Example 67, 4-methyl-1-(5-((4-methyl-3,4-dihydro-2H-benzo[b][1,4]oxazin-6-yl)thio)-1H-imidazo[4,5-b]pyrazin-2-yl)piperidin-4-amine] gave an IC50 of more than 3 µM.

A word on the IC50: it is the midpoint of a concentration-inhibition curve. High values mean weaker potency, low ones greater potency.
